Data from ChEMBL document CHEMBL3217479, “Overcoming retinoic acid receptor- based testicular toxicity in the optimisation of glucokinase activators” (Medchemcomm, 2011).
In brackets after ≈: the same amount, converted by molar mass.

Tests used:
Hexokinase-4 = target: T1, Hexokinase-4 (Homo sapiens, UniProt P35557); assay: Activation of glucokinase (unknown origin)
T1 sequence (P35557 whole entry): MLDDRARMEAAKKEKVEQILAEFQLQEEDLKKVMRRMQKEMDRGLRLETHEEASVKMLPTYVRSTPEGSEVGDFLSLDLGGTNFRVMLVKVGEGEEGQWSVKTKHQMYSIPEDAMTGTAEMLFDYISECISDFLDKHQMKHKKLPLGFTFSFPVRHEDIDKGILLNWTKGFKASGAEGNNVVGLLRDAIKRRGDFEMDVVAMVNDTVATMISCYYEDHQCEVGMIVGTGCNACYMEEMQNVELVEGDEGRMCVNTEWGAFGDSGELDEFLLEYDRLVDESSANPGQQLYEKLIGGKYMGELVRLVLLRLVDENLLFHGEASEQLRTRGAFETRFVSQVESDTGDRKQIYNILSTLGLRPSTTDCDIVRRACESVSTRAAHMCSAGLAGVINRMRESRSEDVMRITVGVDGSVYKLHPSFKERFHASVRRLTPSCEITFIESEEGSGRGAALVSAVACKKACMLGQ

[1] = Lipophilicity, log D of the compound; type: physicochemical; details: octanol/water
[2] = Solubility of the compound; type: physicochemical
[3] = target: T2, Retinoic acid receptor alpha (Homo sapiens, UniProt P10276); assay: Inhibition of RAR alpha (unknown origin)
T2 sequence (P10276 whole entry): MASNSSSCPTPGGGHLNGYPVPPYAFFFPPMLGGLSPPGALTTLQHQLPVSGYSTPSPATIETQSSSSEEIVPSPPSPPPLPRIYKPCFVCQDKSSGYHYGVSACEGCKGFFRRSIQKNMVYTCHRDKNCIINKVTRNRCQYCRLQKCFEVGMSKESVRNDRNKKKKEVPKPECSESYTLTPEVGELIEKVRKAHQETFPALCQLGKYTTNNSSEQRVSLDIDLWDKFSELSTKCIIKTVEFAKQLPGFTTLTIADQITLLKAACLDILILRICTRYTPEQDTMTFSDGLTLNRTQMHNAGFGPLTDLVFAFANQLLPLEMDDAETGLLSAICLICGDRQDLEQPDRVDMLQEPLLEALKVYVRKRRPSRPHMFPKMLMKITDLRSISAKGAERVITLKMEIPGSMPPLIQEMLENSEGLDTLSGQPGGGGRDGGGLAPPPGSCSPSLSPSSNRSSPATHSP

[4] = target: T3, Retinoic acid receptor beta (Homo sapiens, UniProt P10826); assay: Inhibition of RAR beta (unknown origin)
T3 sequence (P10826 whole entry): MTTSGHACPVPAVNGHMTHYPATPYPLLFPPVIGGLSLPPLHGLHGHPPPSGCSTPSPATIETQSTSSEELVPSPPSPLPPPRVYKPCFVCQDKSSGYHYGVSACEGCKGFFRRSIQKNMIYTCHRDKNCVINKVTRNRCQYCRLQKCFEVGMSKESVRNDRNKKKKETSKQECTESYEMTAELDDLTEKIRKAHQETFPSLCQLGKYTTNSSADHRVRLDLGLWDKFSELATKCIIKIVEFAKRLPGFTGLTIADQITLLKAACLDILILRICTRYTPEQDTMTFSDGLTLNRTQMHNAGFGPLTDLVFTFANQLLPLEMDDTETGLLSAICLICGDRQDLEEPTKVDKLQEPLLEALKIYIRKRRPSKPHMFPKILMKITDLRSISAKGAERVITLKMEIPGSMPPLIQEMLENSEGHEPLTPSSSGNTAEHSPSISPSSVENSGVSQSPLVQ

[5] = target: T4, Retinoic acid receptor gamma (Homo sapiens, UniProt P13631); assay: Inhibition of RAR gamma (unknown origin)
T4 sequence (P13631 whole entry): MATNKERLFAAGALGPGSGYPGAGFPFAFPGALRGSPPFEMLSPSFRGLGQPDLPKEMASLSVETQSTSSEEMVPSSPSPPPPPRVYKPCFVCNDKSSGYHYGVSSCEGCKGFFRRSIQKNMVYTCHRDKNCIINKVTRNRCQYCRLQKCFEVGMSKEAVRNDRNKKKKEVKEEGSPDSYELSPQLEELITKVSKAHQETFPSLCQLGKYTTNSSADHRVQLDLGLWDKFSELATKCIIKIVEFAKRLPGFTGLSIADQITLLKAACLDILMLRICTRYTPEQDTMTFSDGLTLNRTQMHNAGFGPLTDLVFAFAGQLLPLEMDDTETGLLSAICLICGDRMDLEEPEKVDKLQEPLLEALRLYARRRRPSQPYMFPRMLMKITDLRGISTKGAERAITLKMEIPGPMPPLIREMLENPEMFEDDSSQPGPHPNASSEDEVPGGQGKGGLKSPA

[6] = Toxicity in testis (unknown origin); type: tissue-based
[7] = Apparent permeability from apical to basolateral side of human Caco2 cells; type: ADME, cell-based; details: Caco-2
Rattus norvegicus [8] = assay: Antidiabetic activity in rat assessed as reduction of glucose AUC at 3 mg/kg by oral glucose tolerance test; type: functional
[9] = target: Voltage-gated inwardly rectifying potassium channel KCNH2 (Homo sapiens, UniProt Q12809)
Rattus norvegicus [10] = assay: Antidiabetic activity in rat assessed as reduction of glucose AUC at 10 mg/kg by oral glucose tolerance test; type: functional

Voltage-gated inwardly rectifying potassium channel KCNH2, sequence (Q12809 whole entry): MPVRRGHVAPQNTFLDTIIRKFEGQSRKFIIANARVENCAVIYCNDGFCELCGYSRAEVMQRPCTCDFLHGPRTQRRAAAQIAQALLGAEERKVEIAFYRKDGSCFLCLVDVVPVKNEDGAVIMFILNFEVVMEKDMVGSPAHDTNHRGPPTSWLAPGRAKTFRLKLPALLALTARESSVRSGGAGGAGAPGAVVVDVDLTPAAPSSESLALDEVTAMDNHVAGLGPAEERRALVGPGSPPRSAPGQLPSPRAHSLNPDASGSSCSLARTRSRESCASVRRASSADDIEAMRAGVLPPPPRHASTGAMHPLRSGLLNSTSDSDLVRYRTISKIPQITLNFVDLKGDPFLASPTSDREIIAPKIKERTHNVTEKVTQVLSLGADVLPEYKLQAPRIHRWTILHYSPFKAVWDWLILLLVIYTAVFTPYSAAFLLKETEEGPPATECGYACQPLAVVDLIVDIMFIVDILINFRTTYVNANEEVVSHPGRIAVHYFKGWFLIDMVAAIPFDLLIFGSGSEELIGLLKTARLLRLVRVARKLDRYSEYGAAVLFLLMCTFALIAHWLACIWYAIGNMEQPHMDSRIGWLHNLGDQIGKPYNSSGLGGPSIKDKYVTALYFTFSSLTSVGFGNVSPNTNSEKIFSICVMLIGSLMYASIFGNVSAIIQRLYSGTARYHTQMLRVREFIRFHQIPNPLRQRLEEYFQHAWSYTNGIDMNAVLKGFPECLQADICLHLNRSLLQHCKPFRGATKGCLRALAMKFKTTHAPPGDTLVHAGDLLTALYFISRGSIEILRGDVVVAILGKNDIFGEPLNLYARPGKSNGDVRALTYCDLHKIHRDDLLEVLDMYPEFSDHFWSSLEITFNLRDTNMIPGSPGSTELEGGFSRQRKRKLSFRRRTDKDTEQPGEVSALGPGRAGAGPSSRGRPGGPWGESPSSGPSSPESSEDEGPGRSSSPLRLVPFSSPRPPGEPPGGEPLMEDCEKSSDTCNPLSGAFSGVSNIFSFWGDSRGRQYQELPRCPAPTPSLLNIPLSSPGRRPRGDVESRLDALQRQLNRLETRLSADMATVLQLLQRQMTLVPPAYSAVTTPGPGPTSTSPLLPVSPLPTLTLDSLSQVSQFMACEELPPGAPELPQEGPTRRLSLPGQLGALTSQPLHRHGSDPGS

SMILES	EC50 (Hexokinase-4) [µM]	logD [1]	solubility [2] [µM]	IC50 [3] [µM]	IC50 [4] [µM]	IC50 [5] [µM]	Papp A→B [7] [×10⁻⁶ cm/s]	Activity [6]	inhibition in vivo at 3 mg/kg (Rattus norvegicus [8]) [%]	IC50 [9] [µM]	inhibition in vivo at 10 mg/kg (Rattus norvegicus [10]) [%]
COC[C@H](C)Oc1cc(Oc2cc(F)cc(F)c2)cc(C(=O)Nc2nccs2)c1	0.07	4.1	< 0.7								
COC[C@H](C)Oc1cc(Oc2ccc(S(C)(=O)=O)cc2)cc(C(=O)Nc2nc(C)ns2)c1	0.11	2.9	129 (≈ 61.6 µg/mL)	> 30			29	Non-toxic	27	7.5	
COC[C@H](C)Oc1cc(Oc2ccc(S(C)(=O)=O)cc2)cc(C(=O)Nc2ccc(C(=O)O)cn2)c1		-0.4	> 3000				0.3				
O=C(O)c1ccc(NC(=O)c2cc(OCc3ccccc3F)cc(OCc3ccccc3F)c2)nc1				0.0111	0.007	1.2		Toxic			

Continued, in another order:

EC50 (Hexokinase-4) [µM]	logD [1]	solubility [2] [µM]	IC50 [3] [µM]	IC50 [4] [µM]	IC50 [5] [µM]	Papp A→B [7] [×10⁻⁶ cm/s]	SMILES	Activity [6]	inhibition in vivo at 3 mg/kg (Rattus norvegicus [8]) [%]	IC50 [9] [µM]	inhibition in vivo at 10 mg/kg (Rattus norvegicus [10]) [%]
			0.47	32	> 1000		COC[C@H](C)Oc1cc(O[C@@H](C)Cc2ccccc2)cc(C(=O)Nc2ccc(C(=O)O)cn2)c1	Toxic			
	1.4	805 (≈ 369 µg/mL)	< 0.001	< 0.001	19	7.4	COC[C@H](C)Oc1cc(Oc2cc(F)cc(F)c2)cc(C(=O)Nc2ccc(C(=O)O)cn2)c1	Toxic			
			0.01	0.135	22		CC(C)COc1cc(OC(C)C)cc(C(=O)Nc2ccc(C(=O)O)cn2)c1	Toxic			
0.06	3.2	20 (≈ 9.25 µg/mL)	> 30			54	COC[C@H](C)Oc1cc(Oc2ccc(S(C)(=O)=O)cc2)cc(C(=O)Nc2nccs2)c1	Non-toxic			29
